From ChEMBL document CHEMBL1158796, “Hectochlorin and morpholine derivatives from the Thai sea hare, Bursatella leachii” (2005) come the findings set out here.

What all share (assay type): functional
Holding throughout (details): read-out: ED50 (the source's name)

The subject of one test is NCI-H187. Briefly: Cytotoxicity against human NCI-H187 cells by SRB assay.
Another test deals with KB. The test is described as follows: Cytotoxicity against human KB cells by SRB assay. On the technique in general: Sulforhodamine B stains cellular protein and so reports cell mass.
Test [1] in a line: Cytotoxicity against human BC cells by SRB assay.

Consider `C[C@@H]1C(=O)O[C@@H](C(C)(C)O)c2nc(cs2)C(=O)OC(C)(C)[C@H](O)c2nc(cs2)C(=O)O[C@H]1CCCC(C)(Cl)Cl` [DEACETYLHECTOCHLORIN], for which the figures for the EC50 (in the test on NCI-H187; with KB; in test [1]) were 320 nM, 310 nM and 1030 nM, respectively.
As for `CC(=O)O[C@@H]1c2nc(cs2)C(=O)O[C@@H](CCCC(C)(Cl)Cl)[C@H](C)C(=O)O[C@@H](C(C)(C)O)c2nc(cs2)C(=O)OC1(C)C` [HECTOCHLORIN], the EC50 in the test with NCI-H187 stood at 1200 nM; with KB it was 860 nM.
